We go through 9 molecules from patent US9179678B2, “Substituted [1,2,4]triazoles and substituted tetrazoles as herbicides” (SYNGENTA LIMITED, priority 2012, dated 2015).

What all share (assay type): in vivo
Assay [1] concerns Setaria faberi (SETFA). Kind of assay: Post-emergence glasshouse herbicide test. To be noted: POST Application, 1000 g/h, after 13 days. The protocol:
Seeds of a variety of test species are sown in standard soil in pots (Alopecurus myosuroides (ALOMY), Setaria faberi (SETFA), Echinochloa crus-galli (ECHCG), Solanum nigrum (SOLNI), Amaranthus retoflexus (AMARE), Ipomoea hederacea (IPOHE)). After cultivation for one day (pre-emergence) or after 8 days cultivation (post-emergence) under controlled conditions in a glasshouse (at 24/16° C., day/night; 14 hours light; 65% humidity), the plants are sprayed with an aqueous spray solution derived from the formulation of the technical active ingredient in acetone/water (50:50) solution containing 0.5% Tween 20 (polyoxyethelyene sorbitan monolaurate, CAS RN 9005-64-5). […] The test plants are then grown in a glasshouse under controlled conditions in a glasshouse (at 24/16° C., day/night; 14 hours light; 65% humidity) and watered twice daily. After 13 days for pre and post-emergence, the test is evaluated for the percentage damage caused to the plant. The biological activities are shown in the following table on a five point scale (5=80-100%; 4=60-79%; 3=40-59%; 2=20-39%; 1=0-19%).

Assay [2] relates to Solanum nigrum (SOLNI). Kind of assay: Pre-emergence glasshouse herbicide test. The conditions noted are these: PRE Application, 1000 g/h, after 13 days. The protocol: (§1) Seeds of a variety of test species are sown in standard soil in pots (Alopecurus myosuroides (ALOMY), Setaria faberi (SETFA), Echinochloa crus-galli (ECHCG), Solanum nigrum (SOLNI), Amaranthus retoflexus (AMARE), Ipomoea hederacea (IPOHE)). After cultivation for one day (pre-emergence) or after 8 days cultivation (post-emergence) under controlled conditions in a glasshouse (at 24/16° C., day/night; 14 hours light; 65% humidity), the plants are sprayed with an aqueous spray solution derived from the formulation of the technical active ingredient in acetone/water (50:50) solution containing 0.5% Tween 20 (polyoxyethelyene sorbitan monolaurate, CAS RN 9005-64-5). Compounds ae applied at 1000 g/h. The test plants are then grown in a glasshouse under controlled conditions in a glasshouse (at 24/16° C., day/night; 14 hours light; 65% humidity) and watered twice daily. After 13 days for pre and post-emergence, the test is evaluated for the percentage damage caused to the plant. The biological activities are shown in the following table on a five point scale (5=80-100%; 4=60-79%; 3=40-59%; 2=20-39%; 1=0-19%).

Assay [3] deals with Ipomoea hederacea (IPOHE). Kind of assay: Pre-emergence glasshouse herbicide test. The conditions noted are these: PRE Application, 1000 g/h, after 13 days. The protocol:
as §1

For assay [4], the system named is Setaria faberi (SETFA). Kind of assay: Pre-emergence glasshouse herbicide test. To be noted: PRE Application, 1000 g/h, after 13 days. The protocol:
as §1

For assay [5], the system named is Echinochloa crus-galli (ECHCG). Kind of assay: Pre-emergence glasshouse herbicide test. The conditions noted are these: PRE Application, 1000 g/h, after 13 days. As for the experimental part:
as §1

Assay [6] deals with Alopecurus myosuroides (ALOMY). Kind of assay: Pre-emergence glasshouse herbicide test. To be noted: PRE Application, 1000 g/h, after 13 days. As for the experimental part:
as §1

Assay [7] relates to Amaranthus retoflexus (AMARE). Kind of assay: Pre-emergence glasshouse herbicide test. The conditions noted are these: PRE Application, 1000 g/h, after 13 days. The protocol: as §1
Assay [8] concerns Solanum nigrum (SOLNI). Kind of assay: Post-emergence glasshouse herbicide test. The conditions noted are these: POST Application, 1000 g/h, after 13 days. The protocol:
as §1

The subject of assay [9] is Ipomoea hederacea (IPOHE). Kind of assay: Post-emergence glasshouse herbicide test. The conditions noted are these: POST Application, 1000 g/h, after 13 days. As for the experimental part:
as §1

Assay [10] relates to Echinochloa crus-galli (ECHCG). Kind of assay: Post-emergence glasshouse herbicide test. To be noted: POST Application, 1000 g/h, after 13 days. The protocol: as §1
For assay [11], the system named is Alopecurus myosuroides (ALOMY). Kind of assay: Post-emergence glasshouse herbicide test. The conditions noted are these: POST Application, 1000 g/h, after 13 days. As for the experimental part: as §1
The test system of assay [12] is Amaranthus retoflexus (AMARE). Kind of assay: Post-emergence glasshouse herbicide test. The conditions noted are these: POST Application, 1000 g/h, after 13 days. The protocol: as §1

On to `Cn1nnnc1NC(=O)c1cc2cccnc2n(C)c1=O` [Compound 1.001], for which the “percentage damage caused to the plant, SETFA” value in [1] and in assay [4] was 1 (1=0-19%) each time. Also, the entries for the “percentage damage caused to the plant, SOLNI” value in assay [2] and in assay [8] were 2 (2=20-39%) and 5 (5=80-100%), respectively. The “percentage damage caused to the plant, IPOHE” value is recorded as 1 (1=0-19%) in assay [3] and 2 (2=20-39%) in assay [9]. The “percentage damage caused to the plant, ECHCG” value is on record as 1 (1=0-19%) in assay [5] and 3 (3=40-59%) in assay [10]. The “percentage damage caused to the plant, ALOMY” value in assay [6] and in assay [11] was 1 (1=0-19%) throughout. The “percentage damage caused to the plant, AMARE” value in assay [7] is given as 2 (2=20-39%); in assay [12], 3 (3=40-59%).
On to `Cn1nnnc1NC(=O)c1cc2cnc(Cl)cc2n(-c2ccccc2)c1=O` [Compound 2.001], for which the “percentage damage caused to the plant, SETFA” value in assay [1] and in assay [4] was 1 (1=0-19%) in each case. Further, the “percentage damage caused to the plant, SOLNI” value in assay [2] is listed as 4 (4=60-79%); in [8], 5 (5=80-100%). The figures for the “percentage damage caused to the plant, IPOHE” value in assay [3] and in assay [9] were 2 (2=20-39%) and 5 (5=80-100%), respectively. The “percentage damage caused to the plant, ECHCG” value in assay [5] and in [10] was 1 (1=0-19%) throughout. For the same molecule, the “percentage damage caused to the plant, ALOMY” value in [6] and in assay [11] was 1 (1=0-19%) in each case. In addition, the “percentage damage caused to the plant, AMARE” value in [7] and in assay [12] was 5 (5=80-100%) in each case.
Turning to `CCn1c(=O)c(C(=O)Nc2nnnn2C)cc2cnc(Cl)cc21` [Compound 2.002], the “percentage damage caused to the plant, SETFA” value in assay [1] and in [4] was 1 (1=0-19%) each time. Besides, the “percentage damage caused to the plant, SOLNI” value in assay [2] is 4 (4=60-79%); in assay [8] it was 5 (5=80-100%). Besides, the “percentage damage caused to the plant, IPOHE” value is 3 (3=40-59%) in [3] and 5 (5=80-100%) in assay [9]. Further, the “percentage damage caused to the plant, ECHCG” value in [5] and in assay [10] was 2 (2=20-39%) each time. For the same molecule, the “percentage damage caused to the plant, ALOMY” value in assay [6] and in assay [11] was 1 (1=0-19%) in each case. For the same molecule, the “percentage damage caused to the plant, AMARE” value in assay [7] and in assay [12] was 5 (5=80-100%) in each case.
Take `CCn1c(=O)c(C(=O)Nc2nnnn2C)cc2cnccc21` [Compound 2.003]: the “percentage damage caused to the plant, SETFA” value in assay [1] and in [4] was 1 (1=0-19%) each time. Besides, the “percentage damage caused to the plant, SOLNI” value is recorded as 1 (1=0-19%) in assay [2] and 3 (3=40-59%) in [8]. Further, the results for the “percentage damage caused to the plant, IPOHE” value in assay [3] and in [9] were 1 (1=0-19%) and 2 (2=20-39%), respectively. The “percentage damage caused to the plant, ECHCG” value in [5] and in [10] was 1 (1=0-19%) throughout. The “percentage damage caused to the plant, ALOMY” value in assay [6] and in assay [11] was 1 (1=0-19%) throughout. The entries for the “percentage damage caused to the plant, AMARE” value in assay [7] and in assay [12] were 1 (1=0-19%) and 3 (3=40-59%), respectively.
Consider `Cn1nnnc1NC(=O)c1nc2cc(C(F)(F)F)ccc2n(C)c1=O` [Compound 3.001], for which the “percentage damage caused to the plant, SETFA” value in assay [1] was 2 (2=20-39%); in [4] it was 1 (1=0-19%). In addition, the “percentage damage caused to the plant, SOLNI” value in assay [2] is reported as 3 (3=40-59%); in [8] it was 4 (4=60-79%). The “percentage damage caused to the plant, IPOHE” value in assay [3] is listed as 1 (1=0-19%); in assay [9], 3 (3=40-59%). The “percentage damage caused to the plant, ECHCG” value in [5] and in [10] was 2 (2=20-39%) in each case. Besides, the “percentage damage caused to the plant, ALOMY” value in assay [6] and in assay [11] was 1 (1=0-19%) throughout. Further, the “percentage damage caused to the plant, AMARE” value in assay [7] was 2 (2=20-39%); in assay [12], 4 (4=60-79%).
For `Cn1nnnc1NC(=O)c1nc2cccnc2n(C)c1=O` [Compound 4.001], the results for the “percentage damage caused to the plant, SETFA” value in [1] and in assay [4] were 2 (2=20-39%) and 1 (1=0-19%), respectively. Moreover, the “percentage damage caused to the plant, SOLNI” value in assay [2] and in assay [8] was 5 (5=80-100%) in each case. Also, the “percentage damage caused to the plant, IPOHE” value in assay [3] is reported as 3 (3=40-59%); in [9] it was 4 (4=60-79%). The figures for the “percentage damage caused to the plant, ECHCG” value in assay [5] and in assay [10] were 4 (4=60-79%) and 5 (5=80-100%), respectively. The “percentage damage caused to the plant, ALOMY” value in assay [6] and in assay [11] was 1 (1=0-19%) in each case. The “percentage damage caused to the plant, AMARE” value in assay [7] and in assay [12] was 5 (5=80-100%) in each case.
As for `Cn1nnnc1NC(=O)c1nc2cccnc2n(-c2ccccc2)c1=O` [Compound 4.002], the “percentage damage caused to the plant, SETFA” value in assay [1] and in assay [4] was 1 (1=0-19%) each time. Further, the “percentage damage caused to the plant, SOLNI” value in assay [2] was 1 (1=0-19%); in assay [8], 3 (3=40-59%). The “percentage damage caused to the plant, IPOHE” value in [3] and in assay [9] was 1 (1=0-19%) throughout. Further, the “percentage damage caused to the plant, ECHCG” value in assay [5] and in assay [10] was 1 (1=0-19%) each time. The “percentage damage caused to the plant, ALOMY” value in assay [6] and in assay [11] was 1 (1=0-19%) each time. Moreover, the “percentage damage caused to the plant, AMARE” value is 1 (1=0-19%) in [7] and 2 (2=20-39%) in [12].
As for `Cn1nnnc1NC(=O)c1nc2ccccc2n(C)c1=O` [Compound 5.002], the “percentage damage caused to the plant, SETFA” value in assay [1] and in [4] was 1 (1=0-19%) each time. Besides, the “percentage damage caused to the plant, SOLNI” value in assay [2] and in [8] was 5 (5=80-100%) throughout. The “percentage damage caused to the plant, IPOHE” value in assay [3] and in assay [9] was 5 (5=80-100%) throughout. In addition, the “percentage damage caused to the plant, ECHCG” value in assay [5] is recorded as 5 (5=80-100%); in assay [10] it was 4 (4=60-79%). The “percentage damage caused to the plant, ALOMY” value in assay [6] and in assay [11] was 1 (1=0-19%) each time. Besides, the “percentage damage caused to the plant, AMARE” value in assay [7] and in assay [12] was 5 (5=80-100%) throughout.
In the case of `Cc1cccc(-n2c(=O)c(C(=O)Nc3nnnn3C)nc3ccccc32)n1` [Compound 5.003], the “percentage damage caused to the plant, SETFA” value in [1] and in assay [4] was 5 (5=80-100%) throughout. The “percentage damage caused to the plant, SOLNI” value in assay [2] and in [8] was 5 (5=80-100%) each time. Moreover, the “percentage damage caused to the plant, IPOHE” value in assay [3] and in assay [9] was 5 (5=80-100%) each time. Moreover, the “percentage damage caused to the plant, ECHCG” value in assay [5] and in assay [10] was 5 (5=80-100%) throughout. In addition, the “percentage damage caused to the plant, ALOMY” value in [6] and in assay [11] was 5 (5=80-100%) each time. Further, the “percentage damage caused to the plant, AMARE” value in assay [7] and in [12] was 5 (5=80-100%) in each case.
